According to patent US7622490B2, “Broadspecturm 2-amino-benzoxazole sulfonamide HIV protease inhibitors” (Tibotec Pharmaceuticals, Ltd., priority 2001, dated 2009):

Tests used:
Type in all cases: cell-based
[1] = system: HIV strain F; assay: Cellular anti-HIV assay, clinically isolated mutant strain F; details: FR=EC50(mutant strain)/EC50(HIV-I strain LAI); MT4 cells
Procedure: (§1) HIV- or mock-infected MT4 cells were incubated for five days in the presence of various concentrations of the inhibitor. At the end of the incubation period, all HIV-infected cells have been killed by the replicating virus in the control cultures in the absence of any inhibitor. Cell viability is measured by measuring the concentration of MTT, a yellow, water soluble tetrazolium dye that is converted to a purple, water insoluble formazan in the mitochondria of living cells only. Upon solubilization of the resulting formazan crystals with isopropanol, the absorbance of the solution is monitored at 540 nm. The values correlate directly to the number of living cells remaining in the culture at the completion of the five day incubation. The inhibitory activity of the compound was monitored on the virus-infected cells and was expressed as EC50 and EC90. These values represent the amount of the compound required to protect 50% and 90%, respectively, of the cells from the cytopathogenic effect of the virus. […] Whetever results are reported as e.g. pEC50 or pCC50 values, the result is expressed as the negative logarithm of the result expressed as EC50 or CC50 respectively. […]
(§2) As a measure of the broad spectrum activity of the present compounds, the fold resistance (FR), defined as FR=EC50(mutant strain)/EC50(HIV-I strain LAI), was determined.

[2] = system: HIV strain C; assay: Cellular anti-HIV assay, clinically isolated mutant strain C; details: FR=EC50(mutant strain)/EC50(HIV-I strain LAI); MT4 cells
Procedure: as §1, §2

[3] = system: HIV strain E; assay: Cellular anti-HIV assay, clinically isolated mutant strain E; details: FR=EC50(mutant strain)/EC50(HIV-I strain LAI); MT4 cells
Procedure: as §1, §2

[4] = system: HIV strain D; assay: Cellular anti-HIV assay, clinically isolated mutant strain D; details: FR=EC50(mutant strain)/EC50(HIV-I strain LAI); MT4 cells
Procedure: as §1, §2

[5] = system: HIV-1 strain LAI; assay: Cellular anti-HIV assay (MTT) in MT4 cells, wild type strain; details: five days
Procedure: The compounds of the present invention were examined for anti-viral activity in a cellular assay. […] The cellular assay was performed according to the following procedure.
HIV- or mock-infected MT4 cells were incubated for five days in the presence of various concentrations of the inhibitor. At the end of the incubation period, all HIV-infected cells have been killed by the replicating virus in the control cultures in the absence of any inhibitor. Cell viability is measured by measuring the concentration of MTT, a yellow, water soluble tetrazolium dye that is converted to a purple, water insoluble formazan in the mitochondria of living cells only. Upon solubilization of the resulting formazan crystals with isopropanol, the absorbance of the solution is monitored at 540 nm. The values correlate directly to the number of living cells remaining in the culture at the completion of the five day incubation. The inhibitory activity of the compound was monitored on the virus-infected cells and was expressed as EC50 and EC90. […] Whetever results are reported as e.g. pEC50 or pCC50 values, the result is expressed as the negative logarithm of the result expressed as EC50 or CC50 respectively.
as §2

[6] = system: HIV strain B; assay: Cellular anti-HIV assay, clinically isolated mutant strain B; details: FR=EC50(mutant strain)/EC50(HIV-I strain LAI); MT4 cells
Procedure: as §1, §2

[7] = system: mock-infected MT4 cells; assay: Toxicity on mock-infected MT4 cells (MTT); details: pCC50 value as determined with mock transfected cells; five days
Procedure: HIV- or mock-infected MT4 cells were incubated for five days in the presence of various concentrations of the inhibitor. At the end of the incubation period, all HIV-infected cells have been killed by the replicating virus in the control cultures in the absence of any inhibitor. Cell viability is measured by measuring the concentration of MTT, a yellow, water soluble tetrazolium dye that is converted to a purple, water insoluble formazan in the mitochondria of living cells only. Upon solubilization of the resulting formazan crystals with isopropanol, the absorbance of the solution is monitored at 540 nm. The values correlate directly to the number of living cells remaining in the culture at the completion of the five day incubation. The inhibitory activity of the compound was monitored on the virus-infected cells and was expressed as EC50 and EC90. These values represent the amount of the compound required to protect 50% and 90%, respectively, of the cells from the cytopathogenic effect of the virus. […] Whetever results are reported as e.g. pEC50 or pCC50 values, the result is expressed as the negative logarithm of the result expressed as EC50 or CC50 respectively.
as §2

[8] = system: HIV strain A; assay: Cellular anti-HIV assay, clinically isolated mutant strain A; details: FR=EC50(mutant strain)/EC50(HIV-I strain LAI); MT4 cells
Procedure: as §1, §2

Row | SMILES | FR towards mutant F [1] | FR towards mutant C [2] | FR towards mutant E [3] | FR towards mutant D [4] | WT (pEC50) [5] | FR towards mutant B [6] | Tox (pCC50) [7] | FR value towards mutant A [8]
1 | CNc1nc2ccc(S(=O)(=O)N(CC(C)C)CC(O)C(Cc3ccccc3)NC(=O)OC3COC4OCCNC34)cc2o1 (mixture of isomers) [Compound 43] | 14 | 0.8 | 0.59 | 0.62 | 7.32 | 1.6 | 4 | 3.3
2 | CNc1nc2ccc(S(=O)(=O)N(CC(C)C)CC(O)C(Cc3ccccc3)NC(=O)OC3COC4OCCNC34)cc2o1 (mixture of isomers) [Compound 44] | 4.9 | 0.93 | 0.56 | 0.56 | 7.36 | 1.3 | 4 | 1.6
